Test results as given in patent US6342079B1, “Primary intermediate for use in oxidative hair dyeing” (Bristol-Myers Squibb Company, priority 2000, dated 2002).

Tests used:
[1] = as described in U.S. Pat. Nos. 5,599,353 and 5,538,516; cited from earlier work
[2] = Storage stability of the free base; type: physicochemical; settings: for long term storage stability: extended storage
Solubility in water = type: physicochemical

## Nc1ccc(N)cc1 [p-phenylenediamine]
[1]
  sensitization potential: strong

## Nc1ccc(N)c(CCO)c1 [2-(2-hydroxyethyl)-p-phenylenediamine, reference compound]
[2]
  long term storage stability: not sufficiently stable

## CC(O)c1cc(N)ccc1N (stereo not drawn) [1-(2,5-Diaminophenyl)ethanol, 1-(2,5-diaminophenyl)ethanol]
Solubility in water
  solubility in water: excellent
[2]
  stability in free base form compared with 2-(2-hydroxyethyl)-p-phenylenediamine: significantly more stable
  long term storage stability: excellent
Sensitization potential
  sensitization potential compared with p-phenylenediamine: much less susceptible to cause sensitization
